In patent publication US20170166598A1, “HETEROARYL COMPOUNDS FOR KINASE INHIBITION” (ARIAD PHARMACEUTICALS, INC., priority 2014, published 2017):

Columns and labels:
Format in all cases: cell-based
[1] = target: T1, Her2 exon 20 YVMA insertion (A775_G776ins YVMA) (Homo sapiens, UniProt P04626, INS775YVMA); assay: Ba/F3-Her2 Exon20 YVMA cell anti-proliferative assay (CellTiter 96 MTS, 72 h); conditions: Ba/F3-Her2 Exon20 YVMA cells
T1 construct: expressed in transfected cells; host or cells: Ba/F3 (murine pro-B) cells transduced with lentivirus from pLVX-IRES puro
T1 sequence (P04626 with tags, fused parts or gaps INS775YVMA): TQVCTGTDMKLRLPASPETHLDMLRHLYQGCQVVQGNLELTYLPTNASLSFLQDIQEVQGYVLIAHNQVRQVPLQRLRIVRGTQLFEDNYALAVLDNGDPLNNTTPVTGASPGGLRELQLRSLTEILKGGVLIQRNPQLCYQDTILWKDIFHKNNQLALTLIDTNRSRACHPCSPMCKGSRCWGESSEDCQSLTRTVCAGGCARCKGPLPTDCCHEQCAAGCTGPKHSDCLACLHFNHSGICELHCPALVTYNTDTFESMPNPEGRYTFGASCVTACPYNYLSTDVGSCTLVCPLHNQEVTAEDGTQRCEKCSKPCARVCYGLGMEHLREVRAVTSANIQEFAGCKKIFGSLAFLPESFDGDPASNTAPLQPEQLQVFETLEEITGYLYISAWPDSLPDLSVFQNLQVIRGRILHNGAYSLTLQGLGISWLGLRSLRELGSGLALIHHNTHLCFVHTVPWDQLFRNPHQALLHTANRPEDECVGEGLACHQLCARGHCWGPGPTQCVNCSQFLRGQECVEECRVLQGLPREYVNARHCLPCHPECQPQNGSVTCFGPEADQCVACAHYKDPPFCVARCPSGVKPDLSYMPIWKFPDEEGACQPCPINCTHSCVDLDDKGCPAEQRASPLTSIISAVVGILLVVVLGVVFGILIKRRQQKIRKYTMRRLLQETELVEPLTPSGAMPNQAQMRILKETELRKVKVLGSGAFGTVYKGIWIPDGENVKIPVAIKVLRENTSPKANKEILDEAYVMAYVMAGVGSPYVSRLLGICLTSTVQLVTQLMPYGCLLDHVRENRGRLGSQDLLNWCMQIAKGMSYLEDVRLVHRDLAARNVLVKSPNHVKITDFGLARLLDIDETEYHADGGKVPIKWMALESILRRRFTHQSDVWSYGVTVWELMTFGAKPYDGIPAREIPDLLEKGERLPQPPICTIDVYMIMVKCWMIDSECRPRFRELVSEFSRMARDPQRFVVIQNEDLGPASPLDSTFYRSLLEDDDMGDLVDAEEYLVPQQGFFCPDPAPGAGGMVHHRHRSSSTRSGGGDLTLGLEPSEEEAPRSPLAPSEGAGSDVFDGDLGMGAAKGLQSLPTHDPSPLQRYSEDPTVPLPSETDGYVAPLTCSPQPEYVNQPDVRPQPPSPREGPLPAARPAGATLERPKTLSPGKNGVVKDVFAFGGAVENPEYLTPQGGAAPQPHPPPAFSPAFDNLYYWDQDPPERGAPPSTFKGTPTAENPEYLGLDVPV
Summary of the method: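 IL-3-independent Ba/F3 cells transduced with the YVMA insertion were treated with compound in 4-fold dilutions from 10,000 nM top. After 72 h at 37° C, viable cells were quantified by MTS tetrazolium conversion, with absorbance read at 490 nm after 2 h.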

[2] = target: T2, human EGFR E746-A750 deletion and T790M Mutation (Homo sapiens, UniProt P00533, DEL746-750/T790M); assay: Ba/F3-EGFR-Del/T790M cell anti-proliferative assay (CellTiter 96 MTS, 72 h); conditions: Ba/F3-EGFR-Del/T790M cells
T2 construct: expressed in transfected cells; host or cells: Ba/F3 (murine pro-B) cells transduced with lentivirus from pLVX-IRES puro
T2 sequence (P00533 with tags, fused parts or gaps DEL746-750/T790M): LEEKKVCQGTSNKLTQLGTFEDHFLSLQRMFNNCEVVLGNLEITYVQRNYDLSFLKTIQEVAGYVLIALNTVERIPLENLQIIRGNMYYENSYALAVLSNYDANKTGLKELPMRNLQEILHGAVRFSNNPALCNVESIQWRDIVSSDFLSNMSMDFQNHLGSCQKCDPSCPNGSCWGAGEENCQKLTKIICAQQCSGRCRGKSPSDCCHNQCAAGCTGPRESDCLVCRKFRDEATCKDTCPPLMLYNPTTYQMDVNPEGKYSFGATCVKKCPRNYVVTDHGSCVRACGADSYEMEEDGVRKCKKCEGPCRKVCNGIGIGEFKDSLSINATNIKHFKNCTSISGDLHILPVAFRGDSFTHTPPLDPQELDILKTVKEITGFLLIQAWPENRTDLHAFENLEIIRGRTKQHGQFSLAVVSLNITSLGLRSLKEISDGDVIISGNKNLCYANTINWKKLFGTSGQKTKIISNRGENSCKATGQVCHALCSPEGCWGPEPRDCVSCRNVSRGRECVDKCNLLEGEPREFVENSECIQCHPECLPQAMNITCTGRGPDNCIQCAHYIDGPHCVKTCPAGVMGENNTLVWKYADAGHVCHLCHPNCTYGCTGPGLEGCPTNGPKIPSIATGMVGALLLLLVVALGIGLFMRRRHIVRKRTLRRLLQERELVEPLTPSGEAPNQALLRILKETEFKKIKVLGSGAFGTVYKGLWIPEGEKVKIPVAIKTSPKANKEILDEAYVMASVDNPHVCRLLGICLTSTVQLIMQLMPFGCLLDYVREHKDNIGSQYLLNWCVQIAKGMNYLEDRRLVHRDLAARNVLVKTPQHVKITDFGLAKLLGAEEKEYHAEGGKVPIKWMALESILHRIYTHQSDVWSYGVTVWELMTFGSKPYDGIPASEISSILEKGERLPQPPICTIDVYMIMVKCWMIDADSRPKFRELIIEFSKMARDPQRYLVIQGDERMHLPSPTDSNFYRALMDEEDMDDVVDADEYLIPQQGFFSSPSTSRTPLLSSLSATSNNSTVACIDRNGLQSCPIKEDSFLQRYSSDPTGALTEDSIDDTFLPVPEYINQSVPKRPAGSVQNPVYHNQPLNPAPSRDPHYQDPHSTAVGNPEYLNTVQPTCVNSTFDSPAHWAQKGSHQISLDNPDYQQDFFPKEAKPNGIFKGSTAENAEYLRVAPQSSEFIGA
Summary of the method: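 Ba/F3 cells made IL-3-independent by lentiviral human EGFR E746-A750 del/T790M, puromycin-selected. Cells treated 72 h at 37 °C with compound, 4-fold dilutions from 10,000 nM top concentration. Viability read by MTS tetrazolium-to-formazan conversion, absorbance at 490 nm after 2 h with reagent.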

[3] = target: T3, human EGFR L858R and T790M double mutation (Homo sapiens, UniProt P00533, L858R/T790M); assay: Ba/F3-EGFR L858R/T790M cell anti-proliferative assay (CellTiter 96 MTS, 72 h); conditions: Ba/F3-EGFR L858R/T790M cells
T3 construct: expressed in transfected cells; host or cells: Ba/F3 (murine pro-B) cells transduced with lentivirus from pLVX-IRES puro
Protocol: An expression vector, pLVX-IRES puro (Clontech) coding for human EGFR L858R and T790M double mutation, was transfected into HEK293 cells by the Trans-Lentiviral ORF Packaging System (Thermo Scientific), to produce virus encoding EGFR L858R and T790M double mutations. Ba/F3 (DSMZ) cells maintained in RPMI 1640 medium supplemented with 10% fetal bovine serum, 200 μM L-glutamine/l 200 μg/mL penicillin/200 μg/mL streptomycin (Life Technology) and 10 ng/mL IL-3 (R&D system), were infected by EGFR L858R and T790M double mutation virus and subsequently selected by puromycin (Life Technology) selection and IL-3 depletion. […] The anti-proliferative activity of compounds was determined as follows: BaF3-EGFR L858R/T790M cells seeded in 96 well plates (2500 cells/well) were treated with test compound (dissolved in DMSO) at a series of concentrations (4-fold dilution, top concentration: 10,000 nM). The plates were incubated for 72 h in a 37° C. incubator with 5% CO2, and the number of viable cells in each well were measured indirectly by CellTiter 96® Aqueous One Solution Cell Proliferation Assay (Promega; this assay is a colorimetric method for determining the number of viable cells through measurement of their metabolic activity by detection of enzymatic conversion of tetrazolium salts into blue formazan derivatives). Reagent (20 μL) was added into each well, and the plates were returned to the incubator for 2 h. The absorbance in each well was then measured at 490 nm using an Envision plate reader (Perkin Elmer).

[4] = target: T4, human EGFR exon 20 insertion NPG (H773_V774insNPG) (Homo sapiens, UniProt P00533, INS772GNP); assay: Ba/F3-EGFR-Exon20-NPG cell anti-proliferative assay (CellTiter 96 MTS, 72 h); conditions: Ba/F3-EGFR-Exon20-NPG cells
T4 construct: expressed in transfected cells; host or cells: Ba/F3 (murine pro-B) cells transduced with lentivirus from pLVX-IRES puro
T4 sequence (P00533 with tags, fused parts or gaps INS772GNP): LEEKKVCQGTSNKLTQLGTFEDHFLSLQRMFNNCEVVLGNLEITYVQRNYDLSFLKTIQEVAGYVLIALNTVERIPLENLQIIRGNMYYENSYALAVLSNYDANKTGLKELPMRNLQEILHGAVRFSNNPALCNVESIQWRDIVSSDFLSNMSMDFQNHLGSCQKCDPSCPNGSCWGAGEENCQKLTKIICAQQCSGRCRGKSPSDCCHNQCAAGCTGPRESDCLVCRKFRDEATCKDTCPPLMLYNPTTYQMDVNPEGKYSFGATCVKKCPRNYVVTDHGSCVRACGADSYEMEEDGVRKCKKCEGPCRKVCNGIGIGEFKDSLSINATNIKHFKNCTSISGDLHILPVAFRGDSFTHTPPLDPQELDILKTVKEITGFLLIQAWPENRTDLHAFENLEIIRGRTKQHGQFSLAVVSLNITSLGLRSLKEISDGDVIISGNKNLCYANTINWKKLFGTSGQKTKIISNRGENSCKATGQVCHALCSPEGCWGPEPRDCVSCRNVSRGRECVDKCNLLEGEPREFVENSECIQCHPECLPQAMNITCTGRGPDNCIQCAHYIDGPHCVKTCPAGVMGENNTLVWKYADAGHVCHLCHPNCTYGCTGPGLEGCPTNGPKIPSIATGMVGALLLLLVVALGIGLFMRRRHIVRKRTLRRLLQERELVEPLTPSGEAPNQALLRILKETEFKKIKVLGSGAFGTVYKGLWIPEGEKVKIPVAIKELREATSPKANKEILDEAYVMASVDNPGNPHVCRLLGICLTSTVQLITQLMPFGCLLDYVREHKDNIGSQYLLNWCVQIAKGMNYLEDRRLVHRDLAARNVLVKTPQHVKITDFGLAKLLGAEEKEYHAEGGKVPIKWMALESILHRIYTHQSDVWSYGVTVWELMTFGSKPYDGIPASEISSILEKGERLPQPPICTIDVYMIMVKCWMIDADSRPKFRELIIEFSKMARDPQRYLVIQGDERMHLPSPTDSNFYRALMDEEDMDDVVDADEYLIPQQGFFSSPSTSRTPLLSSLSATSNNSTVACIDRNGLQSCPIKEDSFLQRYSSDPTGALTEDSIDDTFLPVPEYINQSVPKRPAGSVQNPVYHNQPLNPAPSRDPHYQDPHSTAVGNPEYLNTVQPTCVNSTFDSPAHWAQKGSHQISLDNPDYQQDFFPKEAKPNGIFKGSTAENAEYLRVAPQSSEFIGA
Summary of the method: (§1)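 Ba/F3 cells made IL-3-independent by lentiviral EGFR exon 20 NPG or ASV insertion were exposed 72 h at 37 °C to 4-fold dilutions of compound (top 10,000 nM). Viability read by MTS tetrazolium conversion, absorbance 490 nm after 2 h.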

[5] = target: T5, human EGFR exon 20 insertion ASV (V769_D770insASV) (Homo sapiens, UniProt P00533, INS769ASV); assay: Ba/F3-EGFR-Exon20-ASV cell anti-proliferative assay (CellTiter 96 MTS, 72 h); conditions: Ba/F3-EGFR-Exon20-ASV cells
T5 construct: expressed in transfected cells; host or cells: Ba/F3 (murine pro-B) cells transduced with lentivirus from pLVX-IRES puro
T5 sequence (P00533 with tags, fused parts or gaps INS769ASV): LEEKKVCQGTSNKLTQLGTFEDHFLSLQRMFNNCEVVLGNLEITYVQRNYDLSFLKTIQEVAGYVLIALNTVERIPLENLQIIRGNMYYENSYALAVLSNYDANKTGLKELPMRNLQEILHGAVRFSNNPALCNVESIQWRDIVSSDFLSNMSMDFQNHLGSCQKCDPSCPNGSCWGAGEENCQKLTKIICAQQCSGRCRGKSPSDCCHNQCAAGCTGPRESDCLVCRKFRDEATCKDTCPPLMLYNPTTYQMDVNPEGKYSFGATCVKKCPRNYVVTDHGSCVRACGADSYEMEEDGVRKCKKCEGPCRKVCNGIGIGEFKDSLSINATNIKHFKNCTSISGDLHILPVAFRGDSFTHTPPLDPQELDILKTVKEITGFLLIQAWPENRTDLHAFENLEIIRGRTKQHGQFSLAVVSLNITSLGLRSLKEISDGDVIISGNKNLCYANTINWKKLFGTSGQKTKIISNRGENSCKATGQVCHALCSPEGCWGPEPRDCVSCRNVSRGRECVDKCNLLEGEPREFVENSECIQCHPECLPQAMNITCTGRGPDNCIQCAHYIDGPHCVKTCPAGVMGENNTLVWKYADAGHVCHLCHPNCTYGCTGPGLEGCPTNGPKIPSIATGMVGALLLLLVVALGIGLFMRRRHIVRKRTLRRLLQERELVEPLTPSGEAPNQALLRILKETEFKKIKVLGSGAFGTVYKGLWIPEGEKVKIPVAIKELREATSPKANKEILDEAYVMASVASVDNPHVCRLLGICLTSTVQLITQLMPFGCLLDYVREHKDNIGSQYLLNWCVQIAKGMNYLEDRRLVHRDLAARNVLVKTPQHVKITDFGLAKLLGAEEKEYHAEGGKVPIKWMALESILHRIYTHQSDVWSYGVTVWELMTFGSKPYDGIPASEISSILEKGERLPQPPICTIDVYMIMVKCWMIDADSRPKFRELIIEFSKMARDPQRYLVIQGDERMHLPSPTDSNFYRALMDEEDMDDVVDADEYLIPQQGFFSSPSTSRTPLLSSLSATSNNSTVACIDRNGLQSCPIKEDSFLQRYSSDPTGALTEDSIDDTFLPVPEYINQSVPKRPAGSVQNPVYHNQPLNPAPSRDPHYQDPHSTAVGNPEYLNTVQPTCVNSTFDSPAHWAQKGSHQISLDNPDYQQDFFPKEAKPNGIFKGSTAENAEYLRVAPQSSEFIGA
Summary of the method: as §1

IC50 [1] [µM] | IC50 [4] [µM] | IC50 [5] [µM] | Compound | EGFR exon 19 deletion and exon 20 T790M mutation IC50 [2] | EGFR exon 21 L858R and exon 20 T790M mutation IC50 [3]
< 0.1 | > 1 | < 0.1 | C=CC(=O)Nc1cc(Nc2ncc(C#N)c(-c3cn4c5c(cccc35)CCC4)n2)c(OC)cc1N(C)CCNC [Example 84, N-(5-((5-cyano-4-(5,6-dihydro-4H-pyrrolo[3,2,1-ij]quinolin-1-yl)pyrimidin-2-yl)amino)-4-methoxy-2-(methyl(2-(methylamino)ethyl)amino)phenyl)acrylamide] | A (IC50 value for the indicated mutant below about 100 nM) | A (IC50 value for the indicated mutant below about 100 nM)
> 1 | > 1 | > 1 | C=CC(=O)Nc1cc(Nc2ncc(CCP(C)(C)=O)c(-c3cn4c5c(cccc35)CCC4)n2)c(OC)cc1N(C)CCN(C)C [Example 96] | D (IC50 value for the indicated mutant greater than about 1 μM) | D (IC50 value for the indicated mutant greater than about 1 μM)
> 1 | 0.1 to 0.5 | 0.1 to 0.5 | C=CC(=O)Nc1cc(Nc2ncc(-c3ncc[nH]3)c(-c3cn4c5c(cccc35)CCC4)n2)c(OC)cc1N(C)CCN(C)C [Example 97] | B (IC50 value for the indicated mutant between about 100 to about 500 nM) | C (IC50 value for the indicated mutant between greater than about 500 to about 1 μM)
0.5 to 1 | 0.1 to 0.5 | 0.1 to 0.5 | C=CC(=O)Nc1cc(Nc2nccc(-c3cn4c5c(cccc35)OCC4)n2)c(OC)cc1N(C)CCNC [Example 105, N-(5-((4-(2,3-dihydro-[1,4]oxazino[2,3,4-hi]indol-6-yl)pyrimidin-2-yl)amino)-4-methoxy-2-(methyl(2-(methylamino)ethyl)amino)phenyl)acrylamide] | A (IC50 value for the indicated mutant below about 100 nM) | C (IC50 value for the indicated mutant between greater than about 500 to about 1 μM)
< 0.1 | < 0.1 | < 0.1 | C=CC(=O)Nc1cc(Nc2ncc(-c3nnc(C)o3)c(-c3cn4c5c(cccc35)CCC4)n2)c(OC)cc1N(C)CCN(C)C [Example 107] | A (IC50 value for the indicated mutant below about 100 nM) | A (IC50 value for the indicated mutant below about 100 nM)
